# What was measured:
# [1] = system: tonic extensor reflex on the rabbit gastrocnemius; assay: Muscle-relaxing action: tonic extensor reflex on the rabbit gastrocnemius; type: in vivo; settings: for Muscle relaxation R.A. (relative activity): clozapine = 1.00; for muscle-relaxing properties (in words): rabbit, in vivo
# Excerpt: 2. Muscle-relaxing action The measurement is based on quantifying the tonic extensor reflex on the rabbit gastrocnemius (Teschendorf et al., Arch. Pharmacol. exp. Path. 266 (1970), 462). The rabbit is fixed in a special apparatus which permits bending the paw at the talocalcanean joint in a defined and reproducible manner. As a result of this bending, a tonic extensor reflex is triggered in the […]. The electrical activity of the muscle during contraction is registered and the individual pulses are counted. The extension (duration 5 s) is repeated at intervals of one minute. After a constant number of pulses has been reached (constituting the control value), the test substance is administered intravenously. The number of pulses after administration is related to the previous value. For each dose investigated, 4-6 animals are used. The ED 50% is the dose which reduces the muscle activity to half, based on the initial value.
# [2] = system: death from physostigmine; assay: Anticholinergic action: protection against death from physostigmine (antiphysostigmine test); type: in vivo, female NMRI mice; settings: Mus musculus; mice, oral, 30 min before physostigmine 0.825 mg/kg s.c.; read-out: Anticholinergic action ED 50%
# Experimental: 4. Anticholinergic action
# Groups of 10 female NMRI mice are given physostigmine subcutaneously, at a lethal dose (0.825 mg/kg). The test substances are administered orally 30 minutes before the administration of physostigmine.
# The ED 50% is determined as the dose of compound which protects 50% of the animals against death from physostigmine.
# [3] = system: orientation hypermotility; assay: Sedative action: decrease in orientation hypermotility of mice; type: in vivo, female NMRI mice; settings: for ED50: Mus musculus, 0.5 h, mice, oral, 30 min after administration, measured for 30 min, read-out: Sedative action ED 50%; for Sedative action R.A. (relative activity): clozapine = 1.00; for sedative-hypnotic effects (in words): compared with clozapine and perlapine
# Experimental: 4-8 groups of 3 female NMRI mice are given the compound orally. The orientation hypermotility induced by a new environment is determined photoelectrically, 30 minutes after administration of the compound, for a period of 30 minutes.
# The ED50% is the dose which produces a decrease in orientation hypermotility by 50%, compared to control animals treated with placebo.
# [4] = system: tryptamine-induced clonic front paw movements; assay: Antitryptamine action: inhibition of tryptamine-induced front paw movements; type: in vivo, rats; settings: for ED50: Rattus norvegicus, ip, rats, intraperitoneal, 30 min before tryptamine.HCl 16 mg/kg i.v., read-out: Antitryptamine action ED 50%; for Antitryptamine action R.A. (relative activity): clozapine = 1.00
# Experimental: 3. Antitryptamine action Tryptamine.HCl (16 mg/kg administered intravenously) regularly causes the following symptoms in rats: clonic front paw movements, back-arching and retropulsion, as well as mandibular movements (Tedeschi et al., J. Pharmacol. Exp. Ther. 126 (1959), 223). The test substances are administered intraperitoneally 30 minutes before the tryptamine. […] The mean inhibitory dose (ED 50%) is determined, by means of Probit analysis, as the dose which prevents the symptom in half the animals.
# [5] = Acute toxicity; settings: mouse, in vivo, ip; mice, intraperitoneal; read-out: Toxicity LD 50
# Experimental: Groups of 5-10 female NMRI mice are given the compounds intraperitoneally. The LD 50 is determined as the dose after which 50% of the treated animals die.
Structure (SMILES),Muscle relaxation R.A. (relative activity) [1],ED50 [2],ED50 [3],Sedative action R.A. (relative activity) [3],ED50 [4],Antitryptamine action R.A. (relative activity) [4],muscle-relaxing properties (in words) [1],sedative-hypnotic effects (in words) [3],LD50 [5],"antimonaminergic action, tryptamine antagonism (in words) ([4]; compared with reference substances)"
"CN1CCN(C2=Cc3cc(Cl)ccc3C(=CC#N)c3ccccc32)CC1 [Example 4, cis- and trans-2-Chloro-5-cyanomethylene-10-(4-methylpiperazin-1-yl)-dibenzo[a,d]-cycloheptene]",10.00,> 21.5 mg/kg,2 mg/kg,2.37,,,,,,
"CN1CCN(C2=Nc3cc(Cl)ccc3Nc3ccccc32)CC1 [Clozapine, reference compound]",,14.1 mg/kg,,1.00,5 mg/kg,1.00,,,,
CN1CCN(C2=Cc3ccccc3/C(=C/C#N)c3ccccc32)CC1 [Example 1a],54.12,> 10 mg/kg,0.8 mg/kg,5.92,8.6 mg/kg,0.58,particularly pronounced,particularly pronounced,,
"N#CC=C1c2ccccc2C=C(N2CCN(CCO)CC2)c2ccccc21 (mixture of isomers) [Example 7, cis,trans-5-Cyanomethylene-10-(N-β-hydroxyethyl-piperazin-1-yl)-dibenzo[a,d]-cycloheptene.1/2 H2 O]",3.54,> 21.5 mg/kg,0.97 mg/kg,4.89,,,,,> 100 mg/kg,
"CN1CCN(C2=Cc3cc(Cl)ccc3/C(=C/C#N)c3ccccc32)CC1 [Example 4a, cis-5-cyanomethylene-2-chloro-10-(4-methyl-piperazin-1-yl)-dibenzo[a,d]-cycloheptene]",10.00,> 21.5 mg/kg,0.44 mg/kg,10.77,0.7 mg/kg,7.14,particularly pronounced,particularly pronounced,,markedly more pronounced
"CN1CCN(C2=Cc3ccccc3C(=CC#N)c3ccccc32)CC1 [Example 1, cis- and trans-5-Cyanomethylene-10-(4-methyl-piperazin-1-yl)-dibenzo[a,d]-cycloheptene]",7.19,> 10 mg/kg,0.96 mg/kg,4.94,,,,,324 mg/kg,
"C[N+]1([O-])CCN(C2=Cc3ccccc3C(=CC#N)c3ccccc32)CC1 (mixture of isomers) [Example 12, cis,trans-5-Cyanomethylene-10-(4-methyl-4-oxy-piperazin-1-yl)-dibenzo[a,d]-cycloheptene.21/2 H2 O]",0.46,> 21.5 mg/kg,1.4 mg/kg,3.39,12.5 mg/kg,0.40,,,> 100 mg/kg,
"CN1CCN(C2=Nc3ccccc3Cc3ccccc32)CC1 [Perlapine, reference compound]",,> 21.5 mg/kg,,,4.1 mg/kg,1.22,,,,
"CCN1CCN(C2=Cc3ccccc3/C(=C/C#N)c3ccccc32)CC1 [Example 5a, cis-5-cyanomethylene-10-(4-ethyl-piperazin-1-yl)-dibenzo[a,d]-cycloheptene]",4.60,> 21.5 mg/kg,1 mg/kg,4.74,11.2 mg/kg,0.45,,,> 100 mg/kg,
"CCN1CCN(C2=Cc3ccccc3C(=CC#N)c3ccccc32)CC1 (mixture of isomers) [Example 5, cis,trans-5-Cyanomethylene-10-(4-ethyl-piperazin-1-yl)-dibenzo[a,d]-cycloheptene]",3.54,> 21.5 mg/kg,1.38 mg/kg,3.43,18.6 mg/kg,0.27,,,287 mg/kg,
